The experiment concerns the target recombinant mTOR (FLAG-tagged, residues 1362-2549) (Homo sapiens, UniProt P42345). Nature of the experiment: In vitro mTOR kinase assay (Test (a), AlphaScreen). The experiment is classed as biochemical. Conditions: ATP 20 μM, read-out: Test (a): IC50 versus mTOR kinase. In short, it runs like this:
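AlphaScreen read-out: a phospho-T389 p70 S6K antibody on acceptor beads captures the phosphorylated biotin-peptide on donor beads, with signal loss indicating inhibition.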
In general terms: In Alpha technology, singlet oxygen from a donor bead excites a nearby acceptor bead.
recombinant mTOR (FLAG-tagged, residues 1362-2549), sequence (P42345 1362-2549): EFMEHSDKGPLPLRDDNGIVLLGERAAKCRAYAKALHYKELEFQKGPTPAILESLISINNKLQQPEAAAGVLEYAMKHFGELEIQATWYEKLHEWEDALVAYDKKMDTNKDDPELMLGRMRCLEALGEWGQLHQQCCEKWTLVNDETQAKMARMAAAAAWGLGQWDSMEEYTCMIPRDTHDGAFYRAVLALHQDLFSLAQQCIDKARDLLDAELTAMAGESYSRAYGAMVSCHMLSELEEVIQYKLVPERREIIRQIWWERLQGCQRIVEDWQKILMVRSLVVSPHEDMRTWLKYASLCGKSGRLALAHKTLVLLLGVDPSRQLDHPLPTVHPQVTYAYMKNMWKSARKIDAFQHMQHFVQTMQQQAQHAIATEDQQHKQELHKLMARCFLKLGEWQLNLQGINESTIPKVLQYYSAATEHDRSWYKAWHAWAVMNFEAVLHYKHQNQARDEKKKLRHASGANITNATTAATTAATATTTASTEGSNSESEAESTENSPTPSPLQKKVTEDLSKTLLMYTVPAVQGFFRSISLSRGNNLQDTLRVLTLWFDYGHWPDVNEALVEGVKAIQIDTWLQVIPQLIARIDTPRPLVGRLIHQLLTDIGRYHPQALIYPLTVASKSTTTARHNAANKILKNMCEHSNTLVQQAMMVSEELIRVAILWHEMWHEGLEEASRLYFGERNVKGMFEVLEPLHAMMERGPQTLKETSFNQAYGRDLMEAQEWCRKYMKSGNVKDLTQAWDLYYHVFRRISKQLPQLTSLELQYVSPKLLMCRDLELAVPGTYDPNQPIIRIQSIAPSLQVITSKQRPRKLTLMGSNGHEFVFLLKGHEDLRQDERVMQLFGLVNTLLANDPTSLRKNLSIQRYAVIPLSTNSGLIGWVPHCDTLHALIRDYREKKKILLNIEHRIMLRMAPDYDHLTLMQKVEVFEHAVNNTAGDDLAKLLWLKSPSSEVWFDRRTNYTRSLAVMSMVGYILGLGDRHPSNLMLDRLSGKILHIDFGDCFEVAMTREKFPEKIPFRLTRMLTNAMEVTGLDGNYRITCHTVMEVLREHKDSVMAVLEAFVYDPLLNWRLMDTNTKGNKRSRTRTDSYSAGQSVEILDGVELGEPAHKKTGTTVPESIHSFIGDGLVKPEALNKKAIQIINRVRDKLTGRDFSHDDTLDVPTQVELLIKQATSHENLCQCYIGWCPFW
As a reminder, the IC50 is the concentration at which inhibition is half-maximal. Take `CS(=O)(=O)Cc1cc(N2CCOCC2)nc(-c2ccc(NC(=O)N3CCCC3)cc2)n1` [Example 45f, N-[4-[4-(methylsulfonylmethyl)-6-morpholin-4-yl-pyrimidin-2-yl]phenyl]pyrrolidine-1-carboxamide]: the IC50 turned out to be 1600 nM.

With `CS(=O)(=O)Cc1cc(N2CCOCC2)nc(-c2ccc(NC(=O)N3CCOCC3)cc2)n1` [Example 45g, N-[4-[4-(methylsulfonylmethyl)-6-morpholin-4-yl-pyrimidin-2-yl]phenyl]morpholine-4-carboxamide], the IC50 was 41 nM.

As to `CS(=O)(=O)Cc1cc(N2CCOCC2)nc(-c2ccc(NC(=O)N3CCC(O)CC3)cc2)n1` [Example 45h, 4-hydroxy-N-[4-[4-(methylsulfonylmethyl)-6-morpholin-4-yl-pyrimidin-2-yl]phenyl]piperidine-1-carboxamide], the IC50 worked out at 140 nM.

On to `CN(C)CCNC(=O)Nc1ccc(-c2nc(CS(C)(=O)=O)cc(N3CCOCC3)n2)cc1` [Example 45j, 1-(2-dimethylaminoethyl)-3-[4-[4-(methylsulfonylmethyl)-6-morpholin-4-yl-pyrimidin-2-yl]phenyl]urea], for which the IC50 came to 720 nM.

Turning to `CS(=O)(=O)Cc1cc(N2CCOCC2)nc(-c2ccc(NC(=O)NCCO)cc2)n1` [Example 45k, 3-(2-hydroxyethyl)-1-[4-[4-(methylsulfonylmethyl)-6-morpholin-4-yl-pyrimidin-2-yl]phenyl]urea], the IC50 turned out to be 49 nM.

As for `CCN(C)C(=O)Nc1ccc(-c2nc(CS(C)(=O)=O)cc(N3CCOCC3)n2)cc1` [Example 45l, 1-ethyl-1-methyl-3-[4-[4-(methylsulfonylmethyl)-6-morpholin-4-yl-pyrimidin-2-yl]phenyl]urea], the IC50 is 1100 nM.

As for `CS(=O)(=O)Cc1cc(N2CCOCC2)nc(-c2ccc(NC(=O)N3CCCC(O)C3)cc2)n1` (centres unmarked) [Example 45m, 3-hydroxy-N-[4-[4-(methylsulfonylmethyl)-6-morpholin-4-yl-pyrimidin-2-yl]phenyl]piperidine-1-carboxamide], the IC50 came out at 170 nM.

In the case of `CS(=O)(=O)Cc1cc(N2CCOCC2)nc(-c2ccc(NC(=O)N3CCC(S(C)(=O)=O)C3)cc2)n1` (centres unmarked) [Example 45n, 3-methylsulfonyl-N-[4-[4-(methylsulfonylmethyl)-6-morpholin-4-yl-pyrimidin-2-yl]phenyl]pyrrolidine-1-carboxamide], the IC50 came to 630 nM.

With `CS(=O)(=O)Cc1cc(N2CCOCC2)nc(-c2ccc(NC(=O)NCCN3CCOCC3)cc2)n1` [Example 45o, 1-[4-[4-(methylsulfonylmethyl)-6-morpholin-4-yl-pyrimidin-2-yl]phenyl]-3-(2-morpholin-4-ylethyl)urea], the IC50 was 900 nM.

`CC(C)(C)CNC(=O)Nc1ccc(-c2nc(CS(C)(=O)=O)cc(N3CCOCC3)n2)cc1` [Example 45p, 1-(2,2-dimethylpropyl)-3-[4-[4-(methylsulfonylmethyl)-6-morpholin-4-yl-pyrimidin-2-yl]phenyl]urea]: the IC50 amounted to 920 nM.

Turning to `CS(=O)(=O)Cc1cc(N2CCOCC2)nc(-c2ccc(NC(=O)NCCCO)cc2)n1` [Example 45q, 3-(3-hydroxypropyl)-1-[4-[4-(methylsulfonylmethyl)-6-morpholin-4-yl-pyrimidin-2-yl]phenyl]urea], the IC50 turned out to be 32 nM.

For the compound `CN(Cc1ccccc1)C(=O)Nc1ccc(-c2nc(CS(C)(=O)=O)cc(N3CCOCC3)n2)cc1` [Example 45r, 1-benzyl-1-methyl-3-[4-[4-(methylsulfonylmethyl)-6-morpholin-4-yl-pyrimidin-2-yl]phenyl]urea], the IC50 was found to be 410 nM.

For the compound `CCOCCNC(=O)Nc1ccc(-c2nc(CS(C)(=O)=O)cc(N3CCOCC3)n2)cc1` [Example 45s, 1-(2-ethoxyethyl)-3-[4-[4-(methylsulfonylmethyl)-6-morpholin-4-yl-pyrimidin-2-yl]phenyl]urea], the IC50 was found to be 300 nM.

For the compound `CC(CO)NC(=O)Nc1ccc(-c2nc(CS(C)(=O)=O)cc(N3CCOCC3)n2)cc1` (centres unmarked) [Example 45t, 1-(1-hydroxypropan-2-yl)-3-[4-[4-(methylsulfonylmethyl)-6-morpholin-4-yl-pyrimidin-2-yl]phenyl]urea], the IC50 was 82 nM.

The values above are taken from US7750003B2, “Compounds-943” (AstraZeneca AB, priority 2006, dated 2010).
